Data reported in patent US20260001864A1, “COMPOUND CONTAINING SULFAMIDE STRUCTURE, AND PREPARATION METHOD THEREFOR AND APPLICATION THEREOF, AND PHARMACEUTICAL COMPOSITION AND APPLICATION” (Nanjing Shuohui Pharmatechnology Co., Ltd, priority 2021, published 2026).
Where a name gives a salt, the structure may show the parent alone.

The molecules below were run against H+/K+-ATPase (rabbit gastric mucosal microsomes) (Oryctolagus cuniculus (Rabbit), UniProt P27112) (assay: In vitro screening test of H+/K+-ATPase inhibition (malachite green)). Details: pH 6.5, 37° C. 30 min, read-out: IC50, inhibitory effect on H+/K+-ATPase activity.
Chain of H+/K+-ATPase (rabbit gastric mucosal microsomes) (P27112 whole entry): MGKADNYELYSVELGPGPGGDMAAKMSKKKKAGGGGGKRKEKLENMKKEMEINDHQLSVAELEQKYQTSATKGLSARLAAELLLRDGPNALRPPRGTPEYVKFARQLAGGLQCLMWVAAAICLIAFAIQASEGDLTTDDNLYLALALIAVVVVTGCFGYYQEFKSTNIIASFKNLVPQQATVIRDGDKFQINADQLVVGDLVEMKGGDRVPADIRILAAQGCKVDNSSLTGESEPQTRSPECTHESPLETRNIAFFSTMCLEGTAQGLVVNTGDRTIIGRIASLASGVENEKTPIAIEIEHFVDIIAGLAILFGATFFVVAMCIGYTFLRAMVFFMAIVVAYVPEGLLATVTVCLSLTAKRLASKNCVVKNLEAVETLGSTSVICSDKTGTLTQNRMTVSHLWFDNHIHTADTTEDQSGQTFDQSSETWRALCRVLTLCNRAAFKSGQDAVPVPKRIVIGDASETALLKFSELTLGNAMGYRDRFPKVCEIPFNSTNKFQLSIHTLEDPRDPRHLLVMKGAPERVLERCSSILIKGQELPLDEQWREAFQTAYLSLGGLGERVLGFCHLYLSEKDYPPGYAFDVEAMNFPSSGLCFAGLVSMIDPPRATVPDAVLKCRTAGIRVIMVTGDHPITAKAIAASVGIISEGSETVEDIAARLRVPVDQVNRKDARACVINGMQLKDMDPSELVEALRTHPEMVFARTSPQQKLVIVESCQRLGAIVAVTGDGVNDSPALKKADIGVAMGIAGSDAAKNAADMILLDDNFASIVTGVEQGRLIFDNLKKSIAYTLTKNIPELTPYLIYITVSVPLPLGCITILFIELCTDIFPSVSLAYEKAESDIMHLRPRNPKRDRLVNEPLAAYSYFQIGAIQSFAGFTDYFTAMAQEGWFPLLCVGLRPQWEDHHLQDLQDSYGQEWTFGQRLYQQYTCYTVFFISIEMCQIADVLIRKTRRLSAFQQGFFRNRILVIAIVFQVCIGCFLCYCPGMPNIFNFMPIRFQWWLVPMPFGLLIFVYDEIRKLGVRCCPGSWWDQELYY
Chain of H+/K+-ATPase (rabbit gastric mucosal microsomes) (P18597 whole entry partner): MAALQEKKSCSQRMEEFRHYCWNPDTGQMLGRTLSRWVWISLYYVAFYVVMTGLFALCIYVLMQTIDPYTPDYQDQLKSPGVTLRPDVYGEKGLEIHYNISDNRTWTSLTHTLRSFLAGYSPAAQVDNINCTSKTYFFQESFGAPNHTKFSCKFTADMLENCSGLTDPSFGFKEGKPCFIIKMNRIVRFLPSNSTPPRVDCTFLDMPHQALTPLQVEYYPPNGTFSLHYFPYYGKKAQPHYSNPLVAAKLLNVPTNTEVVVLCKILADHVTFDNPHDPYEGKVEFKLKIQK
Type: biochemical
Description: This test example evaluates the inhibitory effects of the compounds of the present invention on the activity of H+/K+-ATPase by an in vitro screening test, and expresses them with the IC50 values of the compounds (obtained by calculating the inhibition rates at different concentrations).
• Compound solutions: The products (i.e., the compounds or the hydrochloride salt of compounds) obtained in the foregoing preparation examples of the present invention were each independently dissolved in DMSO to form solutions at suitable concentrations; • Buffer I: 50 mmol/L HEPEs-Tris, pH=6.5, 5 mmol/L magnesium chloride, […] valinomycin (J&K Scientific Ltd., goods No.: 227304); • Buffer II: 50 mmol/L HEPEs-Tris, pH=6.5, 5 mmol/L magnesium chloride, […] valinomycin, 5 mmol/L potassium chloride; • 5-adenosine triphosphate (ATP, Sigma-Aldrich, goods No.: A2383) solution: Dilute ATP with buffer I to 5 mM; • Malachite green solution: Dissolve 0.12 wt % malachite green (J&K Scientific Ltd., goods No.: 913120) in 2.5 mol/L sulfuric acid, 7.5 wt % ammonium molybdate (J&K Scientific Ltd., goods No.: 128321) and 11% Tween 20(V/V). During use, sulfuric acid, ammonium molybdate and Tween 20 are mixed in a ratio of 100:25:2; • Rabbit gastric mucosal microsomes (rich in H+/K+-ATPase, self-extracted), extracted by sucrose gradient centrifugation: The rabbit stomach was washed with tap water and 3M NaCl solution, respectively, and then the surface water was removed with filter paper. A pre-cooled homogenization buffer (4 ml/g tissue) was added and homogenized for 2-5 min in a tissue homogenizer. After the homogenizing, if there are large tissue particles, they can be removed by centrifugation (600 g, 10 min). The supernatant was then transferred to a clean centrifuge tube and centrifuged at 20,000 g for 30 min, then the supernatant was transferred to a clean centrifuge tube and further centrifuged at 100,000 g for 90 min and the precipitate was collected; the precipitate was suspended in homogenate and blown evenly, and the protein concentration was measured by the Bradford's method and adjusted to 10 mg/ml; 7.5 wt % Ficoll's layering solution was added in equal proportions. After centrifugation at 100,000 g for 60 min, the middle layer (H^+/K^+-ATPase-enriched gastric membranes) was collected in a clean centrifuge tube, diluted with homogenate by 4-5 times, and then centrifuged at 100,000 g for another 90 min, and the precipitate was collected; the precipitate was suspended in homogenate and homogenized in a glass homogenizer, and the protein concentration was measured by the Bradford's method and adjusted to 22.5 mg/ml. It was frozen at −80° C. and stored for future use.
5 μL of rabbit gastric mucosal microsomes (H^+/K^+-ATPase) was added to 45 μL of buffer II, then 5 μL of compound solution was added, and then 5 μL of 5 mM ATP solution was added to start the reaction and pre-react at 37° C. for 30 min. 15 μL of malachite green solution was added to terminate the reaction, balancing was conducted at room temperature for 20 min, and read the optical absorbance at 620 nm.
Meanwhile, the reaction of the same volume was carried out without addition of potassium chloride as a background, which was subtracted when calculating enzymatic activity.

| Structure (SMILES) | IC50 [nM] |
| --- | --- |
| CNCc1cc(-c2ccc(OCC3CO3)cc2F)n(S(=O)(=O)c2cccnc2)c1 (stereo not drawn) [Compound A11] | 14.1 |
| CNCc1cc(-c2ccc(OCc3cccc4ccccc34)cc2F)n(S(=O)(=O)c2cccnc2)c1 [Compound 62] | 35.9 |
| CNCc1cc(-c2ccc(OC(C)C3CCOCC3)cc2F)n(S(=O)(=O)c2ccc(C)c(F)c2)c1 (stereo not drawn) [Compound 11] | 65.2 |
| CNCc1cc(-c2ccc(OCC3CCCCC3)cc2F)n(S(=O)(=O)c2cccc(OCCF)c2)c1 [Compound 35] | 8650 |
| CNCc1cc(-c2ccc(OCc3cc(F)ccc3F)cc2F)n(S(=O)(=O)c2cccnc2)c1 [Compound 54] | 17.8 |
| CNCc1cc(-c2ccc(OCC3CCN(C(C)=O)CC3)cc2F)n(S(=O)(=O)c2cccnc2)c1 [Compound 23] | 908 |
| CNCc1cc(-c2ccc(OCCCOC)cc2F)n(S(=O)(=O)c2cccnc2)c1 [Compound 43] | 482 |
| CNCc1cc(-c2ccc(OC(C)C3CCOCC3)cc2F)n(S(=O)(=O)c2cccc(OCCCCOC)c2)c1 (stereo not drawn) [Compound 38] | 199 |
| CNCc1cc(-c2ccc(OCC3CCC3)cc2F)n(S(=O)(=O)c2cccnc2)c1 [Compound 2] | 24.5 |
| CNCc1cc(-c2ccc(OC[C@@H]3CO3)cc2F)n(S(=O)(=O)c2cccnc2)c1 [Compound 50] | 114 |
| CNCc1cc(-c2ccc(OC(C)C3CCOCC3)cc2F)n(S(=O)(=O)c2ccc(F)cc2F)c1 (stereo not drawn) [Compound 17] | 265 |
| CNCc1cc(-c2ccc(OC(C)C3CCCCC3)cc2F)n(S(=O)(=O)c2cccnc2)c1 (stereo not drawn) [Compound 20] | 294 |
| CNCc1cc(-c2ccc(OCC3CCOCC3)cc2F)n(S(=O)(=O)c2cccc(OCCF)c2)c1 [Compound 30] | 474 |
| CNCc1cc(-c2ccc(OCC3CCOCC3)cc2F)n(S(=O)(=O)c2cc(F)cc(F)c2)c1 [Compound 27] | 38.7 |
| CNCc1cc(-c2ccc(OCC3CCOCC3)cc2F)n(S(=O)(=O)c2cccc(OCCCOC)c2)c1 [Compound 32] | 822 |
| CNCc1cc(-c2ccc(OC[C@@H]3C[C@@H]3F)cc2F)n(S(=O)(=O)c2cccnc2)c1 [Compound 53] | 56.1 |
| CNCc1cc(-c2ccc(OCc3cccc4ccccc34)cc2F)n(S(=O)(=O)c2cccc(C#N)c2)c1 [Compound 63] | 1060 |
| CNCc1cc(-c2ccc(OCC3CCCC3)cc2F)n(S(=O)(=O)c2cccnc2)c1 [Compound 3] | 20.9 |
| CNCc1cc(-c2ccc(OCC3CCCCO3)cc2F)n(S(=O)(=O)c2cccnc2)c1 (stereo not drawn) [Compound 7] | 254 |
| CNCc1cc(-c2ccc(OC)cc2F)n(S(=O)(=O)c2cccnc2)c1 [Compound 40] | 123 |
| CNCc1cc(-c2ccc(OCc3ccccc3OC(F)(F)F)cc2F)n(S(=O)(=O)c2cccnc2)c1 [Compound 60] | 186 |
| CCCCCOc1cccc(S(=O)(=O)n2cc(CNC)cc2-c2ccc(OCC3CCOCC3)cc2F)c1 [Compound 31] | 1210 |
| CNCc1cc(-c2ccc(OC(C)C3CCOCC3)cc2F)n(S(=O)(=O)c2cccc(OCCOC)c2)c1 (stereo not drawn) [Compound 14, 1-(5-(2-fluoro-4-(1-(tetrahydro-2H-pyran-4-yl)ethoxy)phenyl)-1-((3-(2-methoxyethoxy)phenyl)sulfonyl)-1H-pyrrol-3-yl)-N-methylmethylamine-hydrochloride] | 443 |
| CNCc1cc(-c2ccc(OCc3ccc(F)cc3F)cc2F)n(S(=O)(=O)c2cccnc2)c1 [Compound 55] | 8.6 |

Results, then the molecule that gave them:

| IC50 [nM] | Structure (SMILES) |
| --- | --- |
| 51.6 | CNCc1cc(-c2ccc(OCc3cnn(C)c3)cc2F)n(S(=O)(=O)c2cccnc2)c1 [Compound A3] |
| 66.7 | CNCc1cc(-c2ccc(OCc3cccnc3F)cc2F)n(S(=O)(=O)c2cccnc2)c1 [Compound A1] |
| 18.4 | CNCc1cc(-c2ccc(OCc3ccn(C)n3)cc2F)n(S(=O)(=O)c2cccnc2)c1 [Compound A8] |
| 41 | CNCc1cc(-c2ccc(OC(C)c3c(F)cccc3F)cc2F)n(S(=O)(=O)c2cccnc2)c1 (stereo not drawn) [Compound 67] |
| 119 | CNCc1cc(-c2ccc(OCC3COC3)cc2F)n(S(=O)(=O)c2cccnc2)c1 [Compound A12] |
| 88.1 | CNCc1cc(-c2ccc(OC(C)c3cc(F)cc(F)c3)cc2F)n(S(=O)(=O)c2cccc(C#N)c2)c1 (stereo not drawn) [Compound 70] |
| 470 | CNCc1cc(-c2ccc(O[C@H](C)c3c(Cl)ccc(F)c3Cl)cc2F)n(S(=O)(=O)c2cccnc2)c1 [Compound 76] |
| 1910 | CNCc1cc(-c2ccc(OC(C)c3cc(F)cc(F)c3)cc2F)n(S(=O)(=O)c2cccc(OCCCCOC)c2)c1 (stereo not drawn) [Compound 92] |
| 101 | CNCc1cc(-c2ccc(OCc3ccoc3)cc2F)n(S(=O)(=O)c2cccnc2)c1 [Compound 100] |
| 80.5 | CNCc1cc(-c2ccc(OC(C)c3cc(F)ccc3F)cc2F)n(S(=O)(=O)c2cccnc2)c1 (stereo not drawn) [Compound 65] |
| 65.9 | CNCc1cc(-c2ccc(OCc3cc(F)ccc3F)cc2F)n(S(=O)(=O)c2cc(F)cc(F)c2)c1 [Compound 80] |
| 155 | CNCc1cc(-c2ccc(OCc3cccnc3C)cc2F)n(S(=O)(=O)c2cccnc2)c1 [Compound A2] |
| 41.4 | CNCc1cc(-c2ccc(OC(C)c3cc(F)cc(F)c3)cc2F)n(S(=O)(=O)c2cccnc2)c1 (stereo not drawn) [Compound 68] |
| 157 | CNCc1cc(-c2ccc(OCc3ncccc3F)cc2F)n(S(=O)(=O)c2cccnc2)c1 [Compound A6] |
| 98.5 | CNCc1cc(-c2ccc(OCc3cc(F)ccc3F)cc2F)n(S(=O)(=O)c2cccc(Cl)c2)c1 [Compound 78] |
| 34.4 | CNCc1cc(-c2ccc(OCc3cc(F)ccc3F)cc2F)n(S(=O)(=O)c2cccc(OCCOC)c2)c1 [Compound 86] |
| 36.6 | CNCc1cc(-c2ccc(OCc3ccccc3OC)cc2F)n(S(=O)(=O)c2cccnc2)c1 [Compound 75] |
| 3660 | CCCCCOc1cccc(S(=O)(=O)n2cc(CNC)cc2-c2ccc(OCc3cc(F)ccc3F)cc2F)c1 [Compound 82] |
| 12400 | CNCc1cc(-c2ccc(OCc3cccc4c3OCO4)cc2F)n(S(=O)(=O)c2cccc(OCCCCOC)c2)c1 [Compound 93] |
| 1330 | CNCc1cc(-c2ccc(OC(C)c3cc(F)cc(F)c3)cc2F)n(S(=O)(=O)c2cccc(OCCCOC)c2)c1 (stereo not drawn) [Compound 89] |

These molecules were tested on histamine-induced gastric acid secretion (assay: Inhibition of histamine-induced gastric acid secretion in rats (pylorus ligation)). Details: SD rats, 2 mg/kg by gavage, total acid over 3 h after histamine.
Type: in vivo, rat
Description: 70 SPF-level SD rats with a weight of 180-220 g (Hangzhou Medical College (produced)), randomly grouped by weight, including negative control groups (isovolumetric saline) and model control groups (isovolumetric saline), and compounds obtained in the foregoing preparation examples of the present invention (i.e., compounds or compound hydrochlorides) (2 mg/kg or 4 mg/kg), 10 rats each group, including 5 males and 5 females. The rats were fasted, but were allowed to drink water for 24 h. After 24 h, the rats were given the compound at 1 ml/100 g by gavage, once in each group, and the rats in the negative control groups and the model groups were given an equal volume of saline by gavage. After that, the rats were anesthetized with chloral hydrate 300 mg/kg (1 ml/100 g) and fixed on a rat plate, and the abdominal wall was incised along the abdominal midline from the subxiphoid process of the sternum, and the incision was approximately 2-3 cm and was made on the left costal margin, and the stomach was exposed to the incision by gently pushing it with the fingers upwards. The pylorus was ligated with a thread under the pylorus (other neighboring vessels were not ligated), and the abdominal wall incision was sutured. The animals were given histamine dihydrochloride (30 mg/10 ml/kg) subcutaneously after 1 h of gavage of the test compound or saline. After 3 h of histamine administration, the rats were asphyxiated with excess CO2, stomachs were removed, stomach contents were collected and centrifuged at 3000 rpm/min for 10 min, and the acid solution was titrated with 0.1 mol/L NaOH to pH7.0. The total acidity and acid inhibition rate during the 3 h period were calculated.
Acid inhibition rate (%)=(Total acid in the model group−total acid in the test group)/total acid in the model group×100%

| Structure (SMILES) | Acid inhibition rate [%] |
| --- | --- |
| CNCc1cc(-c2ccc(OCc3cnn(C)c3)cc2F)n(S(=O)(=O)c2cccnc2)c1 [Compound A3] | 65 |
| CNCc1cc(-c2ccc(OCC3CCCO3)cc2F)n(S(=O)(=O)c2cccnc2)c1 (stereo not drawn) [Compound A14] | 63 |
| CNCc1cc(-c2ccc(OCc3cccnc3F)cc2F)n(S(=O)(=O)c2cccnc2)c1 [Compound A1] | 68 |
| CNCc1cc(-c2ccc(OCc3ccn(C)n3)cc2F)n(S(=O)(=O)c2cccnc2)c1 [Compound A8] | 58 |
| CNCc1cc(-c2ccc(OCC3CO3)cc2F)n(S(=O)(=O)c2cccnc2)c1 (stereo not drawn) [Compound A11] | 81 |
| CNCc1cc(-c2ccc(OCc3ccc(OC)nc3)cc2F)n(S(=O)(=O)c2cccnc2)c1 [Compound A4] | 60 |
| CNCc1cc(-c2ccc(OC(C)c3c(F)cccc3F)cc2F)n(S(=O)(=O)c2cccnc2)c1 (stereo not drawn) [Compound 67] | 64 |
| CNCc1cc(-c2ccc(OCC3COC3)cc2F)n(S(=O)(=O)c2cccnc2)c1 [Compound A12] | 63 |
| CNCc1cc(-c2ccc(OCc3cccnn3)cc2F)n(S(=O)(=O)c2cccnc2)c1 [Compound A7] | 53 |
| CNCc1cc(-c2ccc(OCC3CCO3)cc2F)n(S(=O)(=O)c2cccnc2)c1 (stereo not drawn) [Compound A15] | 64 |
